Measured values reported in patent US20210379049A1, “PPAR-gamma AGONIST FOR TREATMENT OF BLOOD CANCERS” (Coherus Biosciences, Inc, priority 2016, published 2021).

How the values were obtained:
adiponectin [1] = assay: 14-day study: serum adiponectin levels in healthy subjects; format: in vivo, human; conditions: 0.1 mg INT131 daily for 14 days
Description: A study was conducted to determine the effect of INT131 on serum adiponectin levels. Thirty healthy subjects were randomly selected to receive either placebo, 0.1 mg INT131, 1 mg INT131 or 4 mg INT131 daily for 14 days. To measure adiponectin levels blood was drawn at Days 1, 4, 8 and 14.

adiponectin [2] = assay: 24-week randomized, double-blind, placebo-controlled study: serum adiponectin levels in subjects with type 2 diabetes; format: in vivo, human; conditions: for Mean Adiponectin Week 24 / Mean Adiponectin Week 0: type 2 diabetes subjects; for Mean Adiponectin Week 0: baseline (Week 0)
Description: A randomized, double-blind, placebo-controlled, 24-week study was conducted in which adiponectin levels were measured. […] 367 subjects with type 2 diabetes (TD2)—a disease in which patient adiponectin levels are reduced-were randomly assigned to receive either 0.5, 1, 2 or 3 milligrams (“mg”) of INT131 besylate, 45 mg of pioglitazone or placebo daily for 24 weeks. To measure adiponectin levels blood was drawn at Weeks 0, 2, 6, 12 and 24.
At baseline (Week 0) mean adiponectin levels were 1.94 micrograms per milliliter (“μg/mL”). The mean adiponectin levels at baseline and Week 24, and the mean change in adiponectin levels from baseline (Week 0) to Week 24 are disclosed in Table 1, below. The standard deviation for samples tested in each group is listed in (parenthesis). Mean baseline adiponectin values were similar for the treatment groups.

[3] = subjects taking INT131 vs those taking pioglitazone; DePaoli et al. 2014; cited from earlier work

| Structure (SMILES) | change in serum adiponectin levels from Day 1 to Day 14 and over placebo (adiponectin [1]) | treatment comparison of adiponectin levels with pioglitazone 45 mg (adiponectin [2]; 0.5 mg, 1 mg and 3 mg doses of INT131 vs pioglitazone 45 mg, p≤0.0408) | treatment comparison of adiponectin levels with placebo (adiponectin [2]; 1 mg, 2 mg and 3 mg doses of INT131 vs placebo, p≤0.0109) | Mean Adiponectin Week 24 (adiponectin [2]; Week 24, 0.5 mg INT131 daily) | Mean Adiponectin Week 24 (adiponectin [2]; Week 24, 1 mg INT131 daily) | Mean Adiponectin Week 24 (adiponectin [2]; Week 24, 2 mg INT131 daily) | Mean Adiponectin Week 24 (adiponectin [2]; Week 24, 3 mg INT131 daily) | Mean Adiponectin Week 0 (adiponectin [2]; 0.5 mg INT131 daily group) | Mean Adiponectin Week 0 (adiponectin [2]; 1 mg INT131 daily group) | Mean Adiponectin Week 0 (adiponectin [2]; 2 mg INT131 daily group) | Mean Adiponectin Week 0 (adiponectin [2]; 3 mg INT131 daily group) | edema, weight gain and hemodilution versus pioglitazone [3] | Mean Adiponectin Week 24 (adiponectin [2]; Week 24, 45 mg pioglitazone daily) | Mean Adiponectin Week 0 (adiponectin [2]; 45 mg pioglitazone daily group) |
| --- | --- | --- | --- | --- | --- | --- | --- | --- | --- | --- | --- | --- | --- | --- |
| O=S(=O)(Nc1cc(Cl)c(Oc2cnc3ccccc3c2)c(Cl)c1)c1ccc(Cl)cc1Cl [INT131] | no significant change | statistically significant | statistically significant | 2.28 µg/mL | 3.15 µg/mL | 5.14 µg/mL | 5.83 µg/mL | 1.73 µg/mL | 1.87 µg/mL | 1.87 µg/mL | 2.00 µg/mL | less edema, weight gain, and hemodilution | – | – |
| CCc1ccc(CCOc2ccc(CC3SC(=O)NC3=O)cc2)nc1 (centres unmarked) [Pioglitazone, pioglitazone, reference compound] | – | – | – | – | – | – | – | – | – | – | – | – | 5.28 µg/mL | 2.32 µg/mL |
